The compounds below were run against T1, RORC2 ligand binding domain (6-His-RORC2 LBD) (Homo sapiens, UniProt P51449) (assay: Co-activator recruitment by TR-FRET (RORC2 FRET)). Conditions: 6.3 nM RORC2 LBD, 200 nM SRC1-2 coactivator peptide, 3 hours room temperature.
T1 construct: made in house; host or cells: E. coli
T1 sequence (P51449 269-508 limits assumed): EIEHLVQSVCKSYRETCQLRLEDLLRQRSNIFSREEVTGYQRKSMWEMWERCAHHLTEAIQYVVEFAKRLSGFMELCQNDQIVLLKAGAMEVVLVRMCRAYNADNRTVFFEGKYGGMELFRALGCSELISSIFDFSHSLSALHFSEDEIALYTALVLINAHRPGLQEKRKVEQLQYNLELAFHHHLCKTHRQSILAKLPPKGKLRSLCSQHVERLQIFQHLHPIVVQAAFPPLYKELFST
Format: biochemical
Excerpt: The activity of compound of the invention can be determined by a co-activator recruitment by TR-FRET (time-resolved fluorescence resonance energy transfer) assay. […] Due to the long lasting fluorescence emission of Europium, the non-specific, short-lived fluorescence is time-resolved (TR) from the fluorescence of interest. Inhibitors of the interaction of receptor and coactivator peptide are detected by a decrease in TR-FRET signal.
Specifically, in one embodiment the aforementioned assay was performed as outlined below. The assay was carried out in black polystyrene, 384-well plates in a total assay volume of 50.5 μL. The assay buffer contained 50 mM TRIS-HCL pH 7.5, 1 mM NaCl, 2 mM MgCl2, 0.5 mg/mL bovine serum albumin, and 5 mM dithiothreitol.
`Cn1cc(C2CCN(C(=O)C[C@@H](O)C(F)(F)F)CC2)c2cc(NC(=O)c3cccc(C#N)c3)ccc21` [Example 90, (R)-3-cyano-N-(1-methyl-3-(1-(4,4,4-trifluoro-3-hydroxybutanoyl)piperidin-4-yl)-1H-indol-5-yl)benzamide] gave an IC50 of 13.9 nM. Compound `Cn1cc(C2CCN(C(=O)C3CCCC3)CC2)c2cc(NS(=O)(=O)c3ccc(C#N)cc3)ccc21` [Example 71, 4-cyano-N-{3-[1-(cyclopentylcarbonyl)piperidin-4-yl]-1-methyl-1H-indol-5-yl}benzenesulfonamide] has an IC50 of 23.9 nM. For `CNc1ncccc1C(=O)N1CCC(c2cn(C)c3ccc(NC(=O)c4cc(C#N)ccn4)cc23)CC1` [Example 16, 4-cyano-N-[1-methyl-3-(1-{[2-(methylamino)pyridin-3-yl]carbonyl}piperidin-4-yl)-1H-indol-5-yl]pyridine-2-carboxamide], the IC50 was 132 nM. In the case of `Cc1cc(C(=O)N2CCC(c3cn(C)c4ccc(NC(=O)c5cc(C#N)ccn5)cc34)CC2)no1` [Example 10, 4-cyano-N-(1-methyl-3-{1-[(5-methylisoxazol-3-yl)carbonyl]piperidin-4-yl}-1H-indol-5-yl)pyridine-2-carboxamide], the IC50 is reported as 42.9 nM. In the case of `Cn1cc(C2CCN(C(=O)C3CCCOC3)CC2)c2cc(NC(=O)c3cc(C#N)ccn3)ccc21` (stereo not drawn) [Example 15, 4-cyano-N-{1-methyl-3-[1-(tetrahydro-2H-pyran-3-ylcarbonyl)piperidin-4-yl]-1H-indol-5-yl}pyridine-2-carboxamide], the IC50 is reported as 15.9 nM. `Cn1cc(C2CCN(C(=O)c3ncccn3)CC2)c2cc(NC(=O)c3cc(C#N)ccn3)ccc21` [Example 24, 4-cyano-N-{1-methyl-3-[1-(pyrimidin-2-ylcarbonyl)piperidin-4-yl]-1H-indol-5-yl}pyridine-2-carboxamide] showed an IC50 of 246 nM. In the case of `N#Cc1ccnc(C(=O)Nc2ccc3[nH]cc(C4CCN(C(=O)C5CCCC5)CC4)c3c2)c1` [Example 37, 4-cyano-N-(3-(1-(cyclopentanecarbonyl)piperidin-4-yl)-1H-indol-5-yl)picolinamide], the IC50 is reported as 34.1 nM. Work on `COCC(=O)N1CCC(c2cn(C)c3ccc(NC(=O)c4cc(C#N)ccn4)cc23)CC1` [Example 34, 4-cyano-N-{3-[1-(methoxyacetyl)piperidin-4-yl]-1-methyl-1H-indol-5-yl}pyridine-2-carboxamide] yielded an IC50 of 100 nM. `N#Cc1cccc(C(=O)Nc2ccc3[nH]cc(C4CCN(S(=O)(=O)C5CCCC5)CC4)c3c2)c1` [Example 86, 3-cyano-N-(3-(1-(cyclopentylsulfonyl)piperidin-4-yl)-1H-indol-5-yl)benzamide] showed an IC50 greater than 20000 nM. Compound `Cn1cc(C2CCN(C(=O)C3CCCC3)C2)c2cc(NC(=O)c3cccc(C#N)c3)ccc21` (stereo not drawn) [Example 79, 3-cyano-N-(3-(1-(cyclopentylcarbonyl)pyrrolidin-3-yl)-1-methyl-1H-indol-5-yl)benzamide] has an IC50 of 199 nM. In the case of `N#Cc1cccc(C(=O)Nc2ccc3onc(C4CCN(C(=O)C5CCCC5)CC4)c3c2)c1` [Example 83, 3-cyano-N-(3-(1-(cyclopentanecarbonyl)piperidin-4-yl)benzo[d]isoxazol-5-yl)benzamide], the IC50 is reported as 23.4 nM. For `Cn1cc(C2CCN(C(=O)C3CCCC3)CC2)c2cc(NS(=O)(=O)C3CCCCC3)ccc21` [Example 70, N-{3-[1-(cyclopentylcarbonyl)piperidin-4-yl]-1-methyl-1H-indol-5-yl}cyclohexanesulfonamide], the IC50 was 7.2 nM. `Cn1cc(C2CCN(C(=O)C(O)C(F)(F)F)CC2)c2cc(NC(=O)c3cc(C#N)ccn3)ccc21` (stereo not drawn) [Example 23, 4-cyano-N-{1-methyl-3-[1-(3,3,3-trifluoro-2-hydroxypropanoyl)piperidin-4-yl]-1H-indol-5-yl}pyridine-2-carboxamide] showed an IC50 of 334 nM. For `O=C(Nc1ccc2[nH]cc(C3CCN(C(=O)C4CCCC4)CC3)c2c1)c1cccc(O)c1` [Example 46, N-{3-[1-(cyclopentylcarbonyl)piperidin-4-yl]-1H-indol-5-yl}-3-hydroxybenzamide], the IC50 was 1450 nM. In the case of `CC(C)CC(=O)N1CCC(c2cn(C)c3ccc(NC(=O)c4cccc(C#N)c4)cc23)CC1` [Example 2, 3-cyano-N-(1-methyl-3-(1-(3-methylbutanoyl)piperidin-4-yl)-1H-indol-5-yl)benzamide], the IC50 is reported as 17.9 nM.
